# Test results taken from patent US20140088144A1, “INHIBITING MICROBIAL INFECTIONS” (THE UNIVERSITY OF KANSAS, priority 2012, published 2014).
# Assays:
# [1] = tested on: icsB; assay: Shigella gene expression qRT-PCR, icsB; type: cell-based, S. flexneri; conditions: for Average ΔΔCt / Ct / RQ (2^−ΔΔCt) / ΔΔCt^1 (normalized to gapA) / ΔΔCt^2 (normalized to rrsA): icsB, example data
# Protocol: Real-time quantitative reverse transcription PCR (qRT-PCR) was performed to test the effects of SE-1 on the expression of the VirF regulated genes virB, icsA, icsB and ipaB. The gapA and rrsA transcripts were used as internal controls. These are constitutively expressed Shigella genes commonly used to normalize mRNA levels. S. flexneri strain SME4331, which carries a null mutation in ipgD (ipgD), was grown at 30° C. overnight in TSB with ampicillin, diluted into the same medium to an OD600 of ˜0.1, and 1 ml aliquots further grown at 30° C. (DMSO only) or at 37° C. (SE-1 at 20 or 40 μM, or DMSO only, all 0.3% DMSO). Cells were grown to an OD600 of 1.0 (˜2.5 h) and RNA was isolated using an RNeasy MiniElute Cleanup Kit (Qiagen, Germantown, Md.), with DNA contamination eliminated using a Turbo DNase Kit (Ambion, Austin, Tex.). Complementary DNA (cDNA) was synthesized by random priming using a cDNA Reverse Transcription Kit (Applied Biosystems, Foster City, Calif.). Primers were tested for PCR specificity using genomic DNA template to ensure a single amplicon of the expected size for each primer pair, and validated using 5-fold dilutions of cDNA (2000 to 0.0256 ng) to ensure a linear plot of cycle threshold (Ct) versus cDNA concentration. Validated primer sets were used to test mRNA profiles in reactions that contained 10 ng of cDNA, 10 μl of SYBR green master mix (Applied Biosystems), specific primers (0.5 μM each) and water to a final volume of 20 μl, using a Step One Plus Real-Time PCR System (Applied Biosystems). The data was analyzed using the 2^−ΔΔCt method, and also by Applied Biosystems real-time analysis software. […] In brief, ΔΔCt values [ΔΔCt=(Ct,Target−Ct,Internal Control)SE-1−(Ct,Target−Ct,Internal Control)no SE-1] were separately obtained for each sample relative to two internal controls, gapA and rrsA. The ΔΔCt values relative to the two internal controls for each sample were averaged and then used to calculate the relative expression levels (2^−ΔΔCt). As a control, we also normalized each internal control to the other internal control. Control reactions used templates generated without reverse transcriptase to ensure low genomic DNA contamination. To ensure that products were not likely to be due to primer dimer artifacts, additional control samples were performed in which reaction mixtures contained primers alone (no template).
# [2] = target: RhaS (Escherichia coli, UniProt P09377); assay: In vivo dose-response, RhaS-activated rhaB-lacZ reporter fusion (β-galactosidase); type: cell-based, E. coli; conditions: full-length RhaS
# Chain of RhaS (P09377 whole entry, the tested form may be a part): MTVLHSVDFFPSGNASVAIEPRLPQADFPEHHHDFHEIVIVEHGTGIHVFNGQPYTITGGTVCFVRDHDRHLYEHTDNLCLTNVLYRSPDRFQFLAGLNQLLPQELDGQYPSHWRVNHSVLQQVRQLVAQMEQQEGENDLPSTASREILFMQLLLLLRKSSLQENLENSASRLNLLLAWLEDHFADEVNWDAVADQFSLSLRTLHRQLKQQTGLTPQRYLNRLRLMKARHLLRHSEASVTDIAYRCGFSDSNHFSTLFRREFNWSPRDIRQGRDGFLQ
# Excerpt: For dose-response studies, a rhaB-lacZ reporter strain was designed that allowed IPTG induction of RhaS or RhaS(163-278) expression from pHG165 (and thus rhaB-lacZ expression). The strain was constructed by introducing malP::lacIq into SME3000 via phage P1vir-mediated generalized transduction. First, SME3000 was transduced with Δcrp-3 zhc-511::Tn10 from SME1403, selecting for tetracycline resistance and screening for sorbitol deficiency (indicating Δcrp) using MacConkey sorbitol. SME3000 Acrp-3 zhc-511::Tn10 was transduced with crp^+ malP::lacI^q from SG22166, selecting for growth on minimal sorbitol and screening for maltose deficiency (indicating malP::lacI^q) using MacConkey maltose. Finally, SME3000 malP::lacI^q zhc-511::Tn10 was transduced with recA::cat from SME1048 by selecting for chloramphenicol resistance, to make strain SME3632.
# The top hit identified in the screen was 1-ethyl-4-(nitromethyl)-3-quinolin-2-yl-4H-quinoline, Compound 2. The closely related compound, Compound 1,1-butyl-4-(nitromethyl)-3-quinolin-2-yl-4H-quinoline, was obtained from eMolecules, Inc. (Solana Beach, Calif.; catalog #3761-0013) or Princeton BioMolecular Research (Princeton, N.J.; catalog #OSSL—051168), with the Princeton named used here. […] Lysis/ONPG buffer (50 μL, as in Primary Screen) was added to each well and the plate was immediately placed into a PowerWave XS plate reader (BioTek Instruments, Inc., Winooski, Vt.), set to read the OD420 of each well every 15 min for 4 hr. […] Due to differences in kinetics of lacZ reporter expression, the rhaB-lacZ strains were analyzed at 4 hours and the hts-lacZ strain was analyzed at 1 hr. Percent activity was calculated for each condition as described above, using the single time point with appropriate OD420 levels for each strain. […] IC50 and maximal inhibition values were calculated using the XLfit add-in for Microsoft Excel (ID Business Solutions, Guildford, UK), and graphs were drawn using Prism (GraphPad, La Jolla, Calif.).
# [3] = target: Rns (Escherichia coli, UniProt P16114); assay: % Inhibition at 82.5 μM, Rns; type: cell-based, Enterotoxigenic E. coli; conditions: 82.5 μM
# Chain of Rns (P16114 whole entry): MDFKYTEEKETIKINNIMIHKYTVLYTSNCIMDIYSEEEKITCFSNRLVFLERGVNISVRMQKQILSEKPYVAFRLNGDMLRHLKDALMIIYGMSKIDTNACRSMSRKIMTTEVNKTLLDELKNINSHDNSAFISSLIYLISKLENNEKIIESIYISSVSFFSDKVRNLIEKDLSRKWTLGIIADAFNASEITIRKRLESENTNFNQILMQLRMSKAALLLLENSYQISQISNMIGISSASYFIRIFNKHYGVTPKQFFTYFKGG
structure (smiles),measurement,setting,value
"CCCCN1C=C(c2ccc3ccccc3n2)C(C[N+](=O)[O-])c2ccccc21 (centres unmarked) [Compound 1, 1-butyl-4-(nitromethyl)-3-quinolin-2-yl-4H-quinoline]",reduction of icsB expression,"[1]; 40 μM SE-1, P<0.05",two-fold reduction
same,Average ΔΔCt,[1]; SE-1 20 μM,−0.06
same,Ct,[1]; SE-1 20 μM,26.25
same,RQ (2^−ΔΔCt),[1]; SE-1 20 μM,1.04
same,ΔΔCt^1 (normalized to gapA),[1]; SE-1 20 μM,−0.56
same,ΔΔCt^2 (normalized to rrsA),[1]; SE-1 20 μM,0.44
same,Average ΔΔCt,[1]; SE-1 40 μM,1.14
same,Ct,[1]; SE-1 40 μM,27.04
same,RQ (2^−ΔΔCt),[1]; SE-1 40 μM,0.45
same,ΔΔCt^1 (normalized to gapA),[1]; SE-1 40 μM,0.80
same,ΔΔCt^2 (normalized to rrsA),[1]; SE-1 40 μM,1.49
same,inhibition of the RhaS-activated fusion,[2]; rhaB-lacZ,fully inhibit expression
same,IC50,"[2]; rhaB-lacZ (SME3634), read-out: IC50, expression of the RhaS-activated fusion",~30 µM
same,% Inhibition at 82.5 μM Rns,[3],90%
